Data from US20240076272A1, “Activators of Heme Regulated Inhibitor Kinase (HRI)” (The Brigham and Women`s Hospital, Inc., priority 2019, published 2024).
Like-named read-outs stand apart in the source and are kept apart here.

Tests used:
[1] = tested on: eIF2α phosphorylation (ATF-4 5′UTR luciferase reporter); experiment: surrogate eIF2α phosphorylation dual-luciferase reporter (DLR) assay; format: cell-based; settings: F/R luciferase ratio normalized to DMSO wells (F/R=1); for fold induction at 1.25 µM: read-out: Fold stimulation of ATF-4 Surrogate eIF2α @ 1.25 μM; for fold induction at 5 µM: read-out: Fold stimulation of ATF-4 Surrogate eIF2α @ 5 μM
Description: The dual luciferase expression vector and other plasmids used in the Examples provided herein have been previously reported (see e.g., Ziegeler et al, J. Biol. Chem. 285 (2010) 15408-15419). The dual luciferase surrogate eIF2α phosphorylation assay, has also been previously reported (see e.g., Chen et al, Nat. Chem. Biol. 7 (2011) 610-616). Briefly, a dual Renilla and Firefly luciferase mammalian reporter vector that transcribes both mRNAs from the same bi-directional enhancer/promoter complex was utilized for generation of surrogate eIF2α phosphorylation assay (see e.g., Ziegeler et al, J. Biol. Chem. 285 (2010) 15408-15419). Both mRNAs contained the same 90 nucleotide plasmid derived 5′UTR. In addition, 5′UTR of the Firefly luciferase open reading frame was fused in-frame to the 267 nucleotide ATF-4 5′UTR (see e.g., Chen et al, Nat. Chem. Biol. 7 (2011) 610-616).
Cells expressing firefly and renilla luciferases were assayed with a dual glow luciferase assay kit, per manufacturer's instruction (Promega Inc., Madison, WI). The data calculations were carried out as the ratio of firefly to renilla luciferase signal (see e.g., Ziegeler et al, J. Biol. Chem. 285 (2010) 15408-15419). Dose-response curves were obtained, and triplicate data points were fitted to the logistical sigmoidal model using nonlinear least-squares regression performed in GraphPad Prism 6.
All newly synthesized N,N′-disubstituted ureas were initially evaluated by testing in the surrogate eIF2α phosphorylation dual-luciferase reporter (DLR) assay (see e.g., Chen et al, Nat. Chem. Biol. 7 (2011) 610-616; and Ziegeler et al, J. Biol. Chem. 285 (2010) 15408-15419). Briefly, this assay takes advantage of the fact that activated HRI phosphorylates eIF2α which inhibits eIF2 guanine nucleotide exchange factor eIF2B, responsible for exchanging the GDP in the eIF2·GDP complex for GTP. The reduction in the recycling of eIF2·GDP into eIF2·GTP interferes with the formation of eIF2·GTP·Met-tRNAi ternary complex. […] These include mRNA coding for activating transcription factor 4 (ATF-4) (see e.g., Aktas et al, Oncotarget, 4 (2013) 1606-1617; Aktas et al, Oncotarget, 6 (2015) 6902-6914; and Aktas et al, Proc. Natl. Acad. Sci. U.S.A. 95 (1998) 8280-8285).
In the present assay, firefly (F) luciferase mRNA was fused to the 5′UTR of ATF-4 mRNA that had multiple uORFs, while renilla (R) luciferase mRNA was fused to a 5′UTR lacking any uORFs. Agents that reduce the amount of the eIF2·GTP·Met-tRNAi ternary complex, such as N,N′-disubstituted ureas that activate HRI, increase F luciferase expression while reducing the R luciferase expression, resulting in an increased F/R luciferase ratio. The ureas of the present application were tested at 10 μM, 5 μM, 2.5 μM, and 1.25 μM concentrations in 96-well assay plates (see e.g., Chen et al, Nat. Chem. Biol. 7 (2011) 610-616; and Bai et al, ChemBioChem, 14 (2013) 1255-1262). The activity scores as the F/R ratios were calculated for every compound-treated well and normalized to F/R ratio of vehicle-treated (DMSO) wells in the same plate, arbitrarily set at 1 (F/R=1). Data obtained in the surrogate dual-luciferase eIF2α phosphorylation (DLR) assay for the series of 1-phenyl-3/4-(4-trifluorometyl) phenoxy-cycloalkyl)ureas (4-CF3-ΦcAlkΦUs) and 1-phenyl-3-(5-(4-(trifluoromethyl) phenoxy)pyrimidin-2-yl)ureas (4-CF3-ΦOPyΦUs) described herein are shown in Tables 1-2.

[2] = tested on: human melanoma CRL-2813 cells; experiment: sulforhodamine B (SRB) cell proliferation assay; format: cell-based; settings: 5 days, read-out: IC50 (concentration that inhibits growth of human melanoma CRL-2813 cells by 50%)
Protocol: Cells were seeded in 96-well plates and maintained for 5 days in the presence of 0.5 μM to 20 μM of individual compound, and cell proliferation was measured by the sulforhodamine B (SRB) assay according to previous reports (see e.g., Palakurthi et al, Cancer Res. 60 (2000) 2919-2925): briefly, at the end of a 5-day treatment, cells were fixed in 10% cold trichloroacetic acid. Cell number was estimated by measuring the remaining bound dye of sulforhodamine B after washing. The percentage of growth was calculated by using the equation: 100×[(T-T0)/(C-T0)], where T and C represent the absorbance in treated and control cultures at Day 5, and T0 at time zero, respectively. If T was less than T0, cell death had occurred and was calculated from 100×[(T-T0)/T0].
All 4-CF3-ΦOcAlkΦUs were tested in the sulforhodamine B (SRB) cell proliferation assay to establish the concentrations that inhibit human melanoma CRL-2813 cells growth by 50% (IC50) (see Table 1). This activity reflects a combined effect of membrane permeability and overall anti-proliferative effects that include on target and off-target effects.

IC50 ([2]; Homo sapiens, CRL2813, 120 h) | melting point | IC50 [2] | Structure (SMILES) | fold induction at 1.25 µM [1] | fold induction at 5 µM [1] | Fold stimulation of ATF-4 Surrogate eIF2α @ 1.25 μM [1] | Fold stimulation of ATF-4 Surrogate eIF2α @ 5 μM [1]
2.3 ± 0.9 µM | 205.9 to 208 °C | – | O=C(Nc1cccc(F)c1F)N[C@H]1C[C@H](Oc2ccc(C(F)(F)F)cc2)C1 [Compound 11-IV, 1-(2,3-Difluorophenyl)-3-(trans-3-(4-(trifluoromethyl)phenoxy)cyclobutyl)urea] | 0.8 ± 0.1 | 6.2 ± 2.7 | – | –
5.2 ± 1.5 µM | 175.4 to 177.5 °C | – | O=C(Nc1ccc(F)c(F)c1)N[C@H]1CC[C@H](Oc2ccc(C(F)(F)F)cc2)C1 [Compound 10-V, 1-(3,4-Difluorophenyl)-3-((1S,3S)-3-(4-(trifluoromethyl)phenoxy)cyclopentyl)urea] | 0.9 ± 0.2 | 3.5 ± 0.7 | – | –
– | 219.8 to 222 °C | 1.4 ± 0.3 µM | N#Cc1cc(F)cc(NC(=O)N[C@H]2CC[C@H](Oc3ccc(C(F)(F)F)cc3)CC2)c1 [Compound 9-VI, 1-(3-Cyano-5-fluorophenyl)-3-(trans-4-(4-(trifluoromethyl)phenoxy)cyclohexyl)urea] | – | – | 3.7 ± 0.8 fold | 6.1 ± 1.1 fold
2.6 ± 0.4 µM | 166.6 to 168.5 °C | – | O=C(Nc1cccc(C(F)(F)F)c1)N[C@H]1C[C@@H](Oc2ccc(C(F)(F)F)cc2)C1 [Compound 2-IVc, 1-(cis-3-(4-(Trifluoromethyl)phenoxy)cyclobutyl)-3-(3-(trifluoromethyl)phenyl)urea] | 1.2 ± 0.3 | 6.2 ± 1.2 | – | –
– | 232.5 to 234.8 °C | – | O=C(Nc1cccc(C(F)(F)F)c1)Nc1ncc(Oc2ccc(C(F)(F)F)cc2)cn1 [Compound 2-py, 1-(5-(4-(Trifluoromethyl)phenoxy)pyrimidin-2-yl)-3-(3-(trifluoromethyl)phenyl)urea] | – | – | – | –
5.5 ± 0.7 µM | 179.9 to 182 °C | – | O=C(Nc1ccc(F)c(F)c1)N[C@H]1C[C@H](Oc2ccc(C(F)(F)F)cc2)C1 [Compound 10-IV, 1-(3,4-difluorophenyl)-3-(trans-3-(4-(trifluoromethyl)phenoxy)cyclobutyl)urea] | 2.2 ± 0.5 | 4.5 ± 0.4 | – | –
> 10 µM | 203.7 to 206.8 °C | – | N#Cc1cccc(NC(=O)N[C@H]2C[C@@H](Oc3ccc(C(F)(F)F)cc3)C2)c1 [Compound 3-IVc, 1-(3-Cyanophenyl)-3-(cis-3-(4-(trifluoromethyl)phenoxy)cyclobutyl)urea] | 1.1 | 0.9 ± 0.1 | 1.1 ± 0.2 fold | –
– | 263.5 to 265.5 °C | – | N#Cc1cc(NC(=O)Nc2ncc(Oc3ccc(C(F)(F)F)cc3)cn2)cc(C(F)(F)F)c1 [Compound 1-py, 1-(3-Cyano-5-(trifluoromethyl)phenyl)-3-(5-(4-(trifluoromethyl)phenoxy)pyrimidin-2-yl)urea] | – | – | – | –
– | 224.8 to 226.2 °C | – | O=C(Nc1ccc(F)c(F)c1)Nc1ncc(Oc2ccc(C(F)(F)F)cc2)cn1 [Compound 10-py, 1-(3,4-Difluorophenyl)-3-(5-(4-(trifluoromethyl)phenoxy)pyrimidin-2-yl) urea] | – | – | – | –

Continued, molecule first:

Structure (SMILES) | IC50 ([2]; Homo sapiens, CRL2813, 120 h) | melting point | IC50 [2] | fold induction at 1.25 µM [1] | fold induction at 5 µM [1] | Fold stimulation of ATF-4 Surrogate eIF2α @ 1.25 μM [1] | Fold stimulation of ATF-4 Surrogate eIF2α @ 5 μM [1]
O=C(Nc1cccc(C(F)(F)F)c1)N[C@H]1C[C@H](Oc2ccc(C(F)(F)F)cc2)C1 [Compound 2-IV, 1-(trans-3-(4-(Trifluoromethyl)phenoxy)cyclobutyl)-3-(3-(trifluoromethyl)phenyl)urea] | 3.4 ± 1 µM | 171.8 to 174.6 °C | – | 2.4 ± 0.6 | 6.5 ± 1.2 | – | –
Cc1ccc(F)cc1NC(=O)Nc1ncc(Oc2ccc(C(F)(F)F)cc2)cn1 [Compound 7-py, 1-(5-Fluoro-2-methylphenyl)-3-(5-(4-(trifluoromethyl)phenoxy)pyrimidin-2-yl)urea] | – | 224.2 to 226.5 °C | – | – | – | – | –
Cc1ccc(F)cc1NC(=O)N[C@H]1CC[C@H](Oc2ccc(C(F)(F)F)cc2)C1 [Compound 7-V, 1-(5-Fluoro-2-methylphenyl)-3-((1S,3S)-3-(4-(trifluoromethyl)phenoxy)cyclopentyl)urea] | 8 ± 2.5 µM | 209.8 to 211.4 °C | – | 1.4 ± 0.1 | 1.3 ± 0.4 | – | –
N#Cc1cc(F)cc(NC(=O)N[C@H]2CC[C@H](Oc3ccc(C(F)(F)F)cc3)C2)c1 [Compound 4-V] | 1.9 ± 1.3 µM | 176.2 to 177.8 °C | – | 2.4 ± 0.3 | 8 ± 2 | – | –
N#Cc1cc(F)cc(NC(=O)Nc2ncc(Oc3ccc(C(F)(F)F)cc3)cn2)c1 [Compound 4-py, 1-(3-Cyano-5-fluorophenyl)-3-(5-(4-(trifluoromethyl)phenoxy)pyrimidin-2-yl)urea] | – | 267.5 to 270 °C | – | – | – | – | –
N#Cc1cc(NC(=O)N[C@H]2C[C@@H](Oc3ccc(C(F)(F)F)cc3)C2)cc(C(F)(F)F)c1 [Compound 1-IVc, 1-(3-Cyano-5-(trifluoromethyl)phenyl)-3-(cis-3-(4-(trifluoromethyl)phenoxy)cyclobutyl)urea] | 0.9 µM | 194.6 to 196.1 °C | – | 4.3 | 8.4 ± 0.5 | 4.3 ± 0.6 fold | –
N#Cc1cccc(NC(=O)N[C@H]2CC[C@H](Oc3ccc(C(F)(F)F)cc3)C2)c1 [Compound 3-V] | 6.5 ± 2.3 µM | 160.2 to 162.1 °C | – | 0.8 ± 0.2 | 1.6 ± 0.2 | – | –
N#Cc1cc(NC(=O)N[C@H]2CC[C@H](Oc3ccc(C(F)(F)F)cc3)C2)cc(C(F)(F)F)c1 [Compound 1-V, 1-(3-Cyano-5-(trifluoromethyl)phenyl)-3-((1S,3S)-3-(4-(trifluoromethyl)phenoxy)cyclopentyl)urea] | 1.2 µM | 144.4 to 146.2 °C | – | 3.1 | 8.3 | 3.1 ± 0.7 fold | 8.3 ± 2.4 fold
N#Cc1cccc(NC(=O)Nc2ncc(Oc3ccc(C(F)(F)F)cc3)cn2)c1 [Compound 3-py, 1-(3-Cyanophenyl)-3-(5-(4-(trifluoromethyl)phenoxy)pyrimidin-2-yl) urea] | – | 260.2 to 261.5 °C | – | – | – | – | –
